Five compounds from US9974306B2, “Herbicidal combinations for tolerant soybean cultures” (priority 2012, dated 2018) can be followed below.

Series [1] concerns SORHA. The experiment in a line: Post-emergence greenhouse treatment, visual rating of herbicidal effect. It is filed as in vivo, Sorghum halepense. As to the method:
(§1) Seeds of grass and broadleaf weeds were sown in pots (diameter: 8 cm) filled with a sandy loam soil. For the herbicide post-emergent treatment, the weeds were grown under optimal conditions up to a growth stage of BBCH 11 (1-2 leaf stage) to 14 (3-4 leaf stage) depending on species. The following weeds were used:
(§2) The applications were performed by post emergence treatments on the planted pots using a spray volume of 300 L water per hectare. The herbicides were applied alone and in combination as in the tables below.
(§3) The trial was conducted in the greenhouse ensuring optimal growing conditions.
(§4) The herbicidal effects were assessed 14 and 24 days following application by visual ratings comparing treated and untreated plants (0%=no effect to 100%=complete die-off).
(§5) The visual ratings are used to calculate interactions between treatments alone and combination treatments according to S. R. Colby, Weeds 15, pages 20 to 22 (1967).

The test system of series [2] is GLXMA Protina. The series is described as follows: Post-emergence greenhouse treatment, visual rating of effect on conventional soybean PROTINA. The format is in vivo. The conditions noted are these: for Effect (%): GLXMA Protina. As for the experimental part:
(§6) The soybeans were grown under the same conditions as described above. The following three varieties were used in the tests:
(§7) 1) W336—Transgenic soybean plants comprising a chimeric gene encoding a W336 mutant HPPD protein of Pseudomonas fluorescens (U.S. Pat. No. 6,245,968) fused to the optimized transit peptide for chloroplast targeting (U.S. Pat. No. 5,510,471), and under the control of the 35S CaMV promoter (Odell et al., 1985, Nature 313: 810-812) fused to the 5′ enhancer sequence of TEV (Carrington and Freed, 1990, J. Virol. 64: 1590-1597), with as 3′ transcript termination and polyadenylation region that of the CaMV 35S gene (Sanfacon et al., 1991, Genes & Development 5:141-149), abbreviated as “W336 soybean plants” herein. 2) MERLIN—conventional 3) PROTINA—conventional
(§8) Two sets of soybeans reaching different growth stages at application time were prepared: one up to growth stage BBCH 11 (1-2 leaf stage) and the other up to BBCH 13 (3-4 leaf stage). Both soybean sets were treated at the same time (together with the weeds) but they were evaluated separately.
as §2, §3, §4, §5

The subject of series [3] is POLCO. The experiment in a line: Post-emergence greenhouse treatment, visual rating of herbicidal effect. Particulars: for Effect (%): POLCO. It is filed as in vivo, Polygonum convolvulus. As for the experimental part: as §1, §2, §3, §4, §5
The test system of series [4] is SETVI. The series is described as above. Particulars: 1-2 leaf; for Effect (%): SETVI, assessment 24 d; for Effect: 24 d. The format is in vivo, Setaria viridis. As to the method: as §1, §2, §3, §4, §5
Series [5] concerns SETFA. The series is described as above. The format is in vivo, Setaria faberi. Particulars: 1-2 leaf. As for the experimental part:
as §1, §2, §3, §4, §5

The subject of series [6] is BRAPP. Described as above. The format is in vivo, Brachiaria platyphylla. The conditions noted are these: for Effect (%): BRAPP. As for the experimental part:
as §1, §2, §3, §4, §5

Series [7] has as its system GLXMA Merlin. The series is described as follows: Post-emergence greenhouse treatment, visual rating of effect on conventional soybean MERLIN. It is filed as in vivo. The conditions noted are these: for Effect (%): GLXMA Merlin, assessment 24 d. As for the experimental part: as §6, §7, §8, §2, §3, §4, §5
For series [8], the system named is BIDPI. The series is described as follows: Post-emergence greenhouse treatment, visual rating of herbicidal effect. The format is in vivo, Bidens pilosa. As to the method:
as §1, §2, §3, §4, §5

Series [9] relates to GLXMA GM_W336. The series is described as follows: Post-emergence greenhouse treatment, visual rating of effect on W336 transgenic (HPPD inhibitor tolerant) soybean. It is filed as in vivo. Particulars: for Effect (%): GLXMA GM_W336. As to the method: as §6, §7, §8, §2, §3, §4, §5
For series [10], the system named is EPHHL. The experiment in a line: Post-emergence greenhouse treatment, visual rating of herbicidal effect. It is filed as in vivo, Euphorbia heterophylla. As for the experimental part:
as §1, §2, §3, §4, §5

Series [11] has as its system PHBPU. The series is described as above. It is filed as in vivo, Pharbitis purpurea. As to the method:
as §1, §2, §3, §4, §5

Setting [12] is: 1-2 leaf, assessment 24 d, (A1) alone 2.5 g a.i./ha.
Setting [13] is: 1-2 leaf, assessment 24 d, (A1) alone 5 g a.i./ha.
The mark [14] stands for this setting: 3-4 leaf, assessment 14 d, (A1) alone 5 g a.i./ha.
The mark [15] stands for this setting: 1-2 leaf, assessment 24 d, (A1) alone 10 g a.i./ha.
[16] abbreviates: 1-2 leaf, 24 d, 5 g a.i./ha alone.
Where [17] appears, read: 3-4 leaf, 14 d, 5 g a.i./ha alone.
[18] abbreviates: 3-4 leaf, 14 d, 20 g a.i./ha alone.
[19] abbreviates: 1-2 leaf, 14 d, 20 g a.i./ha alone.
Setting [20] is: 1-2 leaf, 24 d, 10 g a.i./ha alone.
The mark [21] stands for this setting: 1-2 leaf, 24 d, 20 g a.i./ha alone.

As to `CS(=O)(=O)c1ccc(C(=O)C2C(=O)CCCC2=O)c(Cl)c1COCC(F)(F)F` [(A1), 2-{2-chloro-4-mesyl-3-[(2,2,2-trifluoroethoxy)methyl]benzoyl}cyclohexane-1,3-dione], the “Effect (%)” value in series [1] (SORHA, 1-2 leaf, assessment 24 d, (A1) alone 5 g a.i./ha) amounted to 20%; in series [2] (setting [12]), 65%; in [2] (setting [13]) it was 75%; in [2] (setting [14]) it was 55%; in series [3] (setting [12]) it was 0%; in series [3] (setting [13]) it was 0%. The “Effect (%)” value in series [3] (setting [14]) turned out to be 10%; in series [4] ((A1) alone 5 g a.i./ha) it was 40%; in series [4] ((A1) alone 10 g a.i./ha) it was 40%; in series [5] (SETFA, assessment 24 d, (A1) alone 2.5 g a.i./ha) it was 0%; in [6] (setting [13]), 10%; in series [6] (setting [15]), 10%. Moreover, the “Effect (%)” value in series [6] (setting [14]) is listed as 25%; in series [7] (1-2 leaf, (A1) alone 5 g a.i./ha), 75%; in series [7] (1-2 leaf, (A1) alone 10 g a.i./ha), 80%; in series [8] (BIDPI, 3-4 leaf, assessment 14 d, (A1) alone 5 g a.i./ha) it was 10%; in series [9] (setting [12]), 15%; in series [9] (setting [13]), 15%. Also, the “Effect (%)” value is 15% in series [9] (setting [15]) and 20% in [9] (setting [14]).
Turning to `CS(=O)(=O)c1ccc(C(=O)C2C(=O)CCCC2=O)c([N+](=O)[O-])c1` [(A2), 2-(4-mesyl-2-nitrobenzoyl)cyclohexane-1,3-dione], the Effect in [1] (setting [16]) was 0%; in series [1] (setting [17]), 0%; in series [1] (setting [18]), 15%; in series [2] (setting [19]), 45%; in series [2] (setting [16]), 15%; in series [2] (setting [20]) it was 20%. The Effect in series [2] (setting [21]) was determined as 40%; in series [2] (setting [18]), 50%; in series [3] (setting [20]), 20%; in [3] (setting [17]) it was 20%; in series [3] (setting [18]), 65%; in [4] (5 g a.i./ha alone), 0%. Moreover, the Effect in [10] (setting [19]) is 30%; in series [10] (setting [20]), 10%; in series [10] (setting [21]), 10%; in series [6] (setting [19]) it was 50%; in series [6] (setting [20]), 25%; in [6] (setting [21]), 35%. Further, the Effect was 30% in [7] (setting [17]); 20% in series [8] (setting [21]); 75% in series [11] (setting [20]); 20% in series [9] (setting [19]); 15% in series [9] (setting [16]); 15% in [9] (setting [20]). Moreover, the Effect in [9] (setting [21]) worked out at 25%; in series [9] (setting [17]) it was 15%; in series [9] (setting [18]), 25%.
For the compound `CS(=O)(=O)c1cc(C(F)(F)F)ccc1C(=O)c1cnoc1C1CC1` [(A4), (5-cyclopropyl-1,2-oxazol-4-yl)(α,α,α-trifluoro-2-mesyl-p-tolyl)methanone], the Effect in series [1] (1-2 leaf, 24 d, 20 g a.i./ha) is listed as 40%; in series [2] (1-2 leaf, 24 d, 20 g a.i./ha), 75%; in series [2] (3-4 leaf, 14 d, 10 g a.i./ha), 35%; in [4] (20 g a.i./ha), 10%; in series [6] (3-4 leaf, 14 d, 10 g a.i./ha) it was 15%; in [11] (3-4 leaf, 14 d, 10 g a.i./ha) it was 40%. For the same compound, the Effect in series [9] (1-2 leaf, 24 d, 20 g a.i./ha) was 10%; in series [9] (3-4 leaf, 14 d, 10 g a.i./ha), 10%.
`Cc1c(C(=O)c2cnn(C)c2O)ccc(S(C)(=O)=O)c1C1=NOCC1` [(A5), [3-(4,5-dihydro-1,2-oxazol-3-yl)-4-mesyl-o-tolyl](5-hydroxy-1-methylpyrazol-4-yl)methanone]: the Effect in series [1] (3-4 leaf, 14 d, 3 g a.i./ha) worked out at 15%; in series [1] (3-4 leaf, 24 d, 3 g a.i./ha), 10%; in [2] (3-4 leaf, 14 d, 3 g a.i./ha) it was 50%; in [2] (3-4 leaf, 24 d, 3 g a.i./ha), 50%; in series [5] (24 d, 1.5 g a.i./ha), 30%; in series [7] (1-2 leaf, 24 d, 1.5 g a.i./ha), 55%. The Effect in series [8] (3-4 leaf, 14 d, 3 g a.i./ha) amounted to 25%; in [8] (3-4 leaf, 24 d, 3 g a.i./ha), 10%; in [11] (1-2 leaf, 24 d, 1.5 g a.i./ha), 30%; in series [9] (1-2 leaf, 24 d, 1.5 g a.i./ha) it was 15%; in series [9] (3-4 leaf, 14 d, 3 g a.i./ha), 30%; in series [9] (3-4 leaf, 24 d, 3 g a.i./ha), 30%.
As for `COCCOCc1nc(C(F)(F)F)ccc1C(=O)C1=C(O)C2CCC(C2)C1=O` (stereo not drawn) [(A6), 4-hydroxy-3-{2-[(2-methoxyethoxy)methyl]-6-(trifluoromethyl)-3-pyridylcarbonyl}bicyclo[3.2.1]oct-3-en-2-one], the Effect was found to be 0% in series [1] (1-2 leaf, 14 d, 5 g a.i./ha); 50% in series [2] (1-2 leaf, 14 d, 5 g a.i./ha); 45% in series [2] (3-4 leaf, 14 d, 10 g a.i./ha); 60% in [2] (3-4 leaf, 14 d, 20 g a.i./ha); 50% in series [3] (3-4 leaf, 14 d, 10 g a.i./ha); 50% in series [3] (3-4 leaf, 14 d, 20 g a.i./ha). Moreover, the Effect in [3] (3-4 leaf, 24 d, 10 g a.i./ha) came to 35%; in series [10] (3-4 leaf, 24 d, 10 g a.i./ha), 40%; in series [5] (14 d, 5 g a.i./ha) it was 15%; in series [6] (3-4 leaf, 14 d, 10 g a.i./ha) it was 15%; in [6] (3-4 leaf, 14 d, 20 g a.i./ha) it was 25%; in [6] (3-4 leaf, 24 d, 20 g a.i./ha), 15%. For the same compound, the Effect worked out at 50% in [7] (3-4 leaf, 24 d, 10 g a.i./ha); 50% in series [7] (3-4 leaf, 24 d, 20 g a.i./ha); 30% in series [8] (3-4 leaf, 24 d, 20 g a.i./ha); 5% in series [9] (1-2 leaf, 14 d, 5 g a.i./ha); 25% in [9] (3-4 leaf, 14 d, 10 g a.i./ha); 30% in [9] (3-4 leaf, 14 d, 20 g a.i./ha). Besides, the Effect is 25% in series [9] (3-4 leaf, 24 d, 10 g a.i./ha) and 30% in series [9] (3-4 leaf, 24 d, 20 g a.i./ha).
